Values after ≈ are worked out from the molar mass of the structure shown.
Assays:
[1] = tested on: Mycobacterium tuberculosis II 37 RV (typus humanus); assay: Efficacy against Mycobacteria, Tb-broth dilution series (Table I); type: cell-based; settings: 504 h, Dubos Tb-broth + 10% bovine serum, 21 days, read-out: Minimum Inhibitory Concentration
[2] = tested on: C. albicans; assay: Minimum inhibitory concentration for fungi, tube dilution, C. albicans (Table IV); settings: Candida albicans, 48 h, read-out: Minimum Inhibitory Concentration, C. albicans
Description: (§1) A tube dilution series of the respective compound in Sabouraud nutrient broth, whose individual tubes contained concentrations of 1024 μg, 512 μg, 256 μg, 128 μg, 64 μg, 32 μg, 16 μg, 8 μg, 4 μg, 2 μg, 1.1 μg and 0.5 μg/ml, was prepared and inoculated with a photometrically standardized suspension of the test organisms or the spores thereof.

[3] = Solubility in water; type: physicochemical; settings: hydrochlorides or oxalates, read-out: solubilities (in water)
Description: The following list contains examples of those compounds which are made according to the methods disclosed. (The individual compounds are identified by elementary analyses and infrared spectra, by ultra-violet or nuclear resonance spectra, if necessary.) Individual melting points and solubilities (in water) are also given as is the method by which each compound is prepared.
The melting points and solubilities are given for the Hydrochlorides I - XVI; XVIII - XXVII; XXIX - XXXV; XXXVII - XLII; XLIV - LXII; LXIV - LXVII, and the Oxalates XVII; […]; XXXVI; LXIII.

[4] = tested on: C. albicans; assay: Minimum inhibitory concentration for fungi in presence of serum, C. albicans (Table VI); type: cell-based; settings: Candida albicans; Sabouraud nutrient broth + 10% bovine serum, 28°C, 48 hours
[5] = tested on: Staphylococcus aureus; assay: Agar well inhibition zone test against bacteria, Staphylococcus aureus (Table III); settings: quantity per well giving inhibition zone (500, 50, 5 μg tested); nutrient agar, 37°, 24 hours
[6] = tested on: Escherichia coli; assay: Agar well inhibition zone test against bacteria, Escherichia coli (Table III); settings: quantity per well giving inhibition zone (500, 50, 5 μg tested); nutrient agar, 37°, 24 hours
[7] = tested on: Candida albicans; assay: Agar well inhibition zone test against fungi, Candida albicans (Table II); settings: quantity per well giving inhibition zone (500, 50, 5 μg tested); Sabouraud agar, 28°, 48 hours
Description: (§2) The efficacy of the compounds against fungi was tested as follows:
(§3) The test organisms, in this case the blastomycete Candida albicans and the mold Aspergillus niger, were inoculated onto Sabouraud agar plates by pouring a photometrically adjusted standard suspension of organisms on the plate. After inoculation, wells with a diameter of 5.0 mm were punched in the agar, and filled with 50 ul of the compound solution mentioned before. The quantity of compound applied thus amounted to 500 μg, 50 μg and 5 μg. After incubation at 28° for 48 hours, the quantity of compound was determined at which an inhibition of the organism's growth, in form of an inhibition zone around the corresponding well, was present.

[8] = tested on: Aspergillus niger; assay: Agar well inhibition zone test against fungi, Aspergillus niger (Table II); settings: quantity per well giving inhibition zone (500, 50, 5 μg tested); Sabouraud agar, 28°, 48 hours
Description: as §2, §3

[9] = tested on: A. niger; assay: Minimum inhibitory concentration for fungi, tube dilution, A. niger (Table IV); settings: Aspergillus niger, 48 h, read-out: Minimum Inhibitory Concentration, A. niger
Description: as §1

[10] = tested on: Staph. aureus; assay: Minimum inhibitory concentration for bacteria, tube dilution, Staph. aureus (Table V); settings: Staphylococcus aureus, 48 h, read-out: Minimum Inhibitory Concentration, Staph. aureus
Description: A tube dilution series of the respective compound in nutrient broth whose individual tubes contained concentrations of 1024 μg, 512 μg, 256 μg, 128 μg, 64 μg, 32 μg, 1 μg, 8 μg, 4 μg, 2 μg, 1.1 μg and 0.5 μg/ml was prepared and inoculated with a photometrically standardized suspension of the test organisms.

[11] = tested on: A. niger; assay: Minimum inhibitory concentration for fungi in presence of serum, A. niger (Table VI); type: cell-based; settings: Aspergillus niger; Sabouraud nutrient broth + 10% bovine serum, 28°C, 48 hours

Structure (SMILES) | MIC [1] [µg/mL] | MIC [2] [µg/mL] | solubility [3] [mg/mL] | MIC [4] [µg/mL] | Inhibition Area at μg, Staph. aureus [5] [µg] | Inhibition Area at μg, E. coli [6] [µg] | Inhibition Area at μg, Cand. albicans [7] [µg] | Inhibition Area at μg, Asp. niger [8] [µg] | MIC [9] [µg/mL] | MIC [10] [µg/mL] | MIC [11] [µg/mL]
CC(N1CCN(CCN2CCCCC2)CC1)C(O)(Cc1ccccc1)Cc1ccccc1 (stereo not drawn) [IV, 1-phenyl-2-benzyl-3-[4'-(β-piperidino-ethyl)-piperazino-1']-butanol-2] | 100 | 32 (≈ 73.5 µM) | 50 (≈ 115000 µM) | 32 | 500 | > 500 | 50 | 500 |  |  | 
CC1CCN(CCN2CCN(C(C)C(O)(Cc3ccccc3)Cc3ccccc3)CC2)CC1 (stereo not drawn) [IX, 1-phenyl-2-benzyl-3-{4'-[β-(4"-methyl-piperidino)-ethyl]-piperazino-1'}-butanol-2] | 100 | 16 (≈ 35.6 µM) | 50 (≈ 111000 µM) | 32 | 500 | 500 | 50 | 50 | 128 (≈ 285 µM) |  | 
CC(N1CCNCC1)C(O)(Cc1ccccc1)Cc1ccccc1 (stereo not shown) [L, 1-phenyl-2-benzyl-3-piperazino-butanol-2] | 500 |  | 10 (≈ 30800 µM) | 512 | 500 | 500 | 50 | 50 |  |  | 
CCC(N1CCN(C)CC1)C(O)(Cc1ccccc1)Cc1ccccc1 (stereo not shown) [LVIII, 1-phenyl-2-benzyl-3-(4'-methyl-piperazino-1')-pentanol-2] | 100 | 256 (≈ 726 µM) | < 10 |  | 50 | 500 | 50 | 50 | 128 (≈ 363 µM) | 256 (≈ 726 µM) | 
CC1CN(CCN2CCN(C(C)C(O)(Cc3ccccc3)Cc3ccccc3)CC2)CCO1 (stereo not drawn) [VI, 1-phenyl-2-benzyl-3-{4'-[β-(2"-methyl-morpholino)-ethyl]-piperazino-1'}-butanol-2] | 100 |  | 100 (≈ 221000 µM) |  | > 500 | > 500 | 500 | 500 |  |  | 
CC1CCCCN1CCN1CCN(C(C)C(O)(Cc2ccccc2)Cc2ccccc2)CC1 (stereo not drawn) [VII, 1-phenyl-2-benzyl-3-{4'-[β-(2"-methyl-piperidino)-ethyl]-piperazino-1'}-butanol-2] | 10 | 32 (≈ 71.2 µM) | 50 (≈ 111000 µM) | 32 | 500 | > 500 | 50 | 500 |  |  | 
CC1CCCN(CCN2CCN(C(C)C(O)(Cc3ccccc3)Cc3ccccc3)CC2)C1 (stereo not drawn) [VIII, 1-phenyl-2-benzyl-3-{4'-[β-(3"-methyl-piperidino)-ethyl]-piperazino-1'}butanol-2] | 100 | 16 (≈ 35.6 µM) | 50 (≈ 111000 µM) | 16 | 50 | > 500 | 50 | 500 |  | 512 (≈ 1140 µM) | 
CC(N1CCN(CCN2CCN(CCc3ccccc3)CC2)CC1)C(O)(Cc1ccccc1)Cc1ccccc1 (stereo not drawn) [XIV, 1-phenyl-2-benzyl-3-{4'-[β-(4"-β-phenethyl-piperazino-1")-ethyl]-piperazino-1'}-butanol-2] |  | 32 (≈ 59.2 µM) | 100 (≈ 185000 µM) | 128 | 50 | 500 | 50 | 50 | 16 (≈ 29.6 µM) | 32 (≈ 59.2 µM) | 64
CC(N1CCN(CCCl)CC1)C(O)(Cc1ccccc1)Cc1ccccc1 (stereo not drawn) [XLV, 1-phenyl-2-benzyl-3-[4'-(β-chloro-ethyl)-piperazino-1']-butanol-2] | 100 | > 1020 | 25 (≈ 64600 µM) |  | 50 | 500 | 50 | 500 |  | > 1020 | 
CC(N1CCN(CCCCCCN2CCCCC2)CC1)C(O)(Cc1ccccc1)Cc1ccccc1 (stereo not shown) [XX, 1-phenyl-2-benzyl-3-[4'-(w-piperidino-n-hexyl)-piperazino-1']-butanol-2] |  | 64 (≈ 130 µM) | 100 (≈ 203000 µM) | 128 | 50 | 500 | 50 | 5 | 4 (≈ 8.13 µM) | 128 (≈ 260 µM) | 8
Cc1cccc(CC(O)(Cc2cccc(C)c2)C(C)N2CCN(CCN3CCCCC3)CC2)c1 (stereo not drawn) [XXI, 1-m-tolyl-2-m-methylbenzyl-3-[4'-(β-piperidino-ethyl)-piperazino-1']-butanol-2] |  | 8 (≈ 17.3 µM) | 100 (≈ 216000 µM) | 256 | 5 | > 500 | 50 | 5 | 4 (≈ 8.63 µM) | 64 (≈ 138 µM) | 128
CC(N1CCN(Cc2ccccn2)CC1)C(O)(Cc1ccccc1)Cc1ccccc1 (stereo not shown) [XXII, 1-phenyl-2-benzyl-3-[4'-(2"-pyridylmethyl)-piperazino-1']-butanol-2] | 500 |  | 50 (≈ 120000 µM) | 512 | 50 | > 500 | 500 | 500 |  | > 1020 | 
CC(N1CCN(Cc2cccnc2)CC1)C(O)(Cc1ccccc1)Cc1ccccc1 (stereo not shown) [XXIII, 1-phenyl-2-benzyl-3-[4'-(3"-pyridylmethyl)-piperazino-1']-butanol-2] | 1000 |  | 50 (≈ 120000 µM) |  | 500 | > 500 | 500 | > 500 |  |  | 
CCN(CC)CCN1CCN(C(C)C(=Cc2ccccc2)Cc2ccccc2)CC1 (stereo not drawn) [XXVII, 1-phenyl-2-benzyl-3-[4'-(β-diethylamino-ethyl)-piperazino-1']-butene-1] | 10 | 256 (≈ 631 µM) | 100 (≈ 247000 µM) |  | 50 | 500 | 5 | 5 | 128 (≈ 316 µM) | 256 (≈ 631 µM) | 
CC(C(=Cc1ccccc1)Cc1ccccc1)N1CCN(CCN(C(C)C)C(C)C)CC1 (stereo not drawn) [XXVIII, 1-phenyl-2-benzyl-3-[4'-(β-diisopropylamino-ethyl)-piperazino-1']-butene-1] |  | 64 (≈ 148 µM) | 10 (≈ 23100 µM) | 256 | 50 | 500 | 50 | 50 | 32 (≈ 73.8 µM) | 64 (≈ 148 µM) | > 1020
CC1CN(CCN2CCN(C(C)C(=Cc3ccccc3)Cc3ccccc3)CC2)CCO1 (stereo not drawn) [XXXII, 1-phenyl-2-benzyl-3-{4'-[β-(2-methylmorpholino)-ethyl]-piperazino-1'}-butene-1] | 50 |  | 100 (≈ 231000 µM) |  | 50 | > 500 | 500 | 50 | 128 (≈ 295 µM) | 128 (≈ 295 µM) | 
CC1CCCCN1CCN1CCN(C(C)C(=Cc2ccccc2)Cc2ccccc2)CC1 (stereo not drawn) [XXXIII, 1-phenyl-2-benzyl-3-[4'-(β-2"-methyl-piperidinoethyl)-piperazino-1']-butene-1] | 20 | 256 (≈ 593 µM) | 100 (≈ 232000 µM) |  | 50 | 500 | 5 | 50 | 256 (≈ 593 µM) | 128 (≈ 297 µM) | 
CC1CCN(CCN2CCN(C(C)C(=Cc3ccccc3)Cc3ccccc3)CC2)CC1 (stereo not drawn) [XXXV, 1-phenyl-2-benzyl-3-{4'-[β-(4"-methylpiperidino)-ethyl]-piperazino-1'}-butene-1] |  | 8 (≈ 18.5 µM) | 10 (≈ 23200 µM) | 32 | 50 | 500 | 50 | 50 | 8 (≈ 18.5 µM) | 256 (≈ 593 µM) | 128

Reference: US3947411A, “Novel 1-aryl-2-arylalkyl-3-or-4-[4'-(substituted-alkyl)piperazino-1']butanols- 2-or-butenes-1, and methods of manufacture thereof” (Warner-Lambert Company, priority 1972, dated 1976)
